Data: patent US20240082342A1, “PEPTIDE THERAPEUTICS FOR INCREASING LUNG CELL VIABILITY” (BOARD OF REGENTS, THE UNIVERSITY OF TEXAS SYSTEM, priority 2018, published 2024)
Entries after “also recorded” stand apart in the source; their conditions may differ.

How the values were obtained:
[1] = tested on: A2Cs of miR-34a^fl/fl and miR-34a^cKO mice; assay: Tobacco smoke exposure of miR-34a fl/fl and miR-34a cKO mice; assay type: in vivo, mouse; conditions: for telomere shortening (qPCR): 20 weeks TS; for telomerase enzyme activity: TS
Description: To analyze the effect of cigarette smoke, mice were exposed to passive smoke from 40 research cigarettes over a 2-hour period once (2 h) or twice (4 h) daily for 5 days/week for 20 weeks (˜90 mg/m^3 total solid particulates) using a mechanical smoking chamber (Teague Enterprises, Davis, CA). Control mice were exposed to ambient air. At the 18th week, peptide treatment at a dosage of 30 μg/20 g body weight was initiated and continued on a daily basis for the next 14 days. At the end of the experiment, the mice were euthanized and used for the experiments.
To test the effect of chronic TS exposure induced lung injury, these mice were exposed to passive TS from 40 research cigarettes over a 4 h period 5 days/week for 20 weeks (˜90 mg/m3 total solid particulates) using a mechanical smoking chamber (Teague Enterprises, Davis, CA) as described earlier. (Bhandary et al, 2015). Control mice were kept in ambient air. After sixteen weeks of daily passive TS exposure, mice with TS exposure injury were treated with CSP7 at a dosage of 1.5 mg/kg body weight daily 5 days/week for the next four weeks. These mice were continued with daily exposure of 4 h of TS during CSP7 treatment. At the end of the experiment (after 20 weeks of TS exposure), the mice were euthanized, and lungs were utilized for further analyses. To expand the local delivery options of CSP7 to directly treat the damaged lung by air-jet milling for dry powder inhalation (DPI). Mice exposed to TSE were treated with CSP7 using a rotating brush generator for 15 min daily for 7 days. Fourteen days later, BLM mice were subjected to daily inhalation of micronized CSP7 (0.05 mg/kg/d) DP through air-jet-milling for seven consecutive days using a rotating brush exposure system. The rotating brush exposure system gave a consistent minimal chamber concentration of 0.1 mg/L. In order to match dosing of DP inhalation, animal exposure times were adjusted to approximately 15 minutes and an estimated dose of 0.05 mg/kg/d or 1.00 microgram/lung was administered.
Inducible conditional knockout (miR-34a^cKO) mice lacking miR-34a expression in A2ECs were generated by crossing miR-34a^fl/fl mice with SP-C^Cre/mTmG mice (FIG. 62A). RNA from A2ECs of miR-34a^fl/fl or miR-34a^cKO mice treated with tamoxifen were analyzed for miR-34a. […] After 20 weeks, A2ECs were isolated from these mice and analyzed for changes in miR-34a. […] A2ECs from miR-34a^fl/fl and miR-34a^cKo mice were next isolated and tested the lysates for changes in p53 and PAI-1 expression, and apoptosis. PTS induced p53 and PAI-1 expression in A2ECs of miR-34a^fl/fl mice. These changes were associated increased of A2EC apoptosis and senescence. […] These mice also resisted A2ECs apoptosis or senescence (FIG. 62C).

WT mice with CS-LI = assay: Chronic CS/TSE lung injury in WT mice treated by nebulization or IP injection; assay type: in vivo, mouse; conditions: for lung volume (μCT): 20 weeks CS
Description: Pulmonary function tests were performed immediately before CT imaging and before mice were killed, as previously described (DeCologne N et al., Eur Respir J. 35:176-85, 2010). Briefly, mice were anesthetized with a ketamine/xylazine mixture. Anesthetized mice were intubated by inserting a sterile, 20-gauge intravenous cannula through the vocal cords into the trachea. Elastance, compliance, and total lung resistance were then measured (SCIREQ, Tempe, AZ). The “snapshot perturbation method” was used to study lung function in the CBB injury model. This method measures total lung resistance, compliance, and elastance of the entire respiratory system. Increased total lung resistance in the CBB model may reflect lung contraction associated with pleural rind formation with concurrent distortion of the airways. The flexiVent was set to a tidal volume of […] at a frequency of 150 breaths/min against 2-3 cm H2O positive end-expiratory pressure, according to manufacturer's specifications. The mice were maintained under anesthesia using isofluorane throughout the pulmonary function testing.
After ketamine/xylazine injection, mice were anesthetized further using an isoflurane/02 mixture to ensure that mice remained deeply anesthetized and to minimize spontaneous breaths. The Explore Locus Micro-CT Scanner (General Electric, GE Healthcare, Wauwatosa, WI) was used for CT imaging. CT scans were performed during full inspiration and at a resolution of […]. Lung volumes were calculated from lung renditions collected at full inspiration. Microview software was used to analyze lung volumes and render three-dimensional images (Tucker T A et al., Am J Respir Cell Mol Biol. 50:316-27, 2014).
Wild type (WT) mice of the C57BL/6J strain (n=10/group) were kept in ambient air or were TSE for 4 hour/day, 5 days a week as described. […]
Micro-computed Tomography (pCT) scanning and measurements of lung volume and pulmonary function. […] Lung volumes were calculated from lung renditions collected at full inspiration using Microview software. […]

Substance | miR-34a expression in A2ECs (qRT-PCR) ([1]; WT or miR-34a^fl/fl mice, 20 weeks PTS) | telomere shortening (qPCR) ([1]; WT or miR-34a^fl/fl mice) | miR-34a expression in A2ECs ([1]; miR-34a^cKO mice, 20 weeks PTS) | telomere shortening (qPCR) ([1]; miR-34a^cKO mice) | telomerase enzyme activity ([1]; miR-34a^cKO mice) | p53, PAI-1, A2EC apoptosis and senescence ([1]; miR-34a^fl/fl mice, PTS) | telomerase enzyme activity ([1]; miR-34a^fl/fl mice) | lung volume (μCT) (WT mice with CS-LI) | lung volume, compliance, elastance and resistance (WT mice with CS-LI; IP or Neb, 20 weeks TSE/CS)
FTTFTVT (listed as Homo sapiens) [CSP7, heptapeptide fragment of the caveolin-1 scaffolding domain peptide CSP] | reduced miR-34a expression | protected from telomere shortening; also recorded: significant protection against TS-induced telomere shortening | minimal effect | minimal effect | did not upregulate telomerase activity; also recorded: limited effects on baseline telomerase activity | inhibited p53, PAI-1 and A2EC apoptosis and senescence | significant upregulation; also recorded: reversed | significantly improved | reduced lung volume, compliance, elastance and resistance; also recorded: trend of reversal; also recorded: significantly improved
WGIDKAFFTTSTVTYKWFRY [CP, scrambled control peptide with the same amino acid composition as CSP, reference compound] | – | – | – | – | – | – | little effect | persistently high lung volumes | –
